According to patent US9206165B2, “Tetrazolo hydrazine derivatives and pharmaceutical composition comprising same as active ingredient for preventing or treating cancer” (INDUSTRY-ACADEMIC COOPERATION FOUNDATION, YEUNGNAM …, priority 2012, dated 2015):

Assays:
[1] = system: breast cancer marker genes in MCF-7 cells; experiment: Gene expression analysis by real time RT-PCR in MCF-7 cells; type: cell-based, human; conditions: mRNA
Experimental: (§1) To investigate the various effects of various cell lines, the expression levels of different breast cancer marker genes were tested after treating the compounds.
(§2) Total RNA was extracted from the cells using Trizol™ reagent, stored in diethylpyrocarbonate-treated water at −80° C. until use. Total 2 μg of RNA was used for cDNA synthesis. All the primer used in examples of the present invention were designed with Primer 3 software (http://frodo.wi.mit.edu) using sequence information listed at NCBI. Following conditions were applied for the RT-PCR: pre-denaturation of the synthesized cDNA at 95° C. for 10 min followed by 40 cycles of denaturation at 95° C. for 33 s, annealing at each gene-specific primer Tm (° C.), and extension at 72° C. for 33 s. 1.2% of the agarose gel electrophoresis were used to verify the purity of the amplified genes.

[2] = system: MCF-7 cells; experiment: In vitro anti-cancer activity, MTT, MCF-7; type: cell-based, human; conditions: ER positive MCF-7; FIG. 2
Experimental: (§3) Anti-cancer activities of the compounds f1-f15 on human breast cancer cell line were tested in ER positive (MCF-7) and […] cell lines. The human breast cancer cell lines MCF-7 and MDA-MB-231 were cultured in Dulbecco's Modified Eagle's Medium (DMEM) supplemented with 10% fetal bovine serum (FBS) (HyClone Laboratories, Logan, Utah, USA) and 1% penicillin: streptomycin (Invitrogen, Carlsbad, Calif., USA) in 12 well plates. The test compounds f1-f15 were dissolved in DMSO and one microliter of the stock solution was used per milliliter of the culture to make a working concentration1 1×10^−5, 1×10^−6 and 1×10^−7 M. Each test includes control wells. The cell suspension was diluted to 1×10^4 cells/mL by adding fresh medium, and 1 mL of this suspension was added to the test and control wells. The plates were incubated at 37° C. under CO2 for 24 h. After incubation, the culture media was changed and cells were treated with […] of stock solution. Cells were incubated at 37° C. under CO2 for 48 h. The growth of the cells was checked with a low power microscope and MTT assay was used to confirm the viability. In the similar experiments, the ZR-75 cells were grown in RPMI 1640 (HyClone Laboratories, Logan, Utah, USA) supplemented with 10% fetal bovine serum (FBS) (HyClone Laboratories, Logan, Utah, USA) and 1% penicillin: streptomycin (Invitrogen, Carlsbad, Calif., USA).
(§4) The results for each compound are reported as percent growth (GP %) of treated cells compared to untreated controls. The inhibitory effects were detectable in compounds 2, 8, 10, 12 and 14 among the compounds f1-f15. […] The percent growth inhibition of compounds varied not only with the substituent groups but also with the nature of the cell line.

[3] = system: breast cancer marker genes in MDA-MB-231 cells; experiment: Gene expression analysis by real time RT-PCR in MDA-MB-231 cells; type: cell-based, human; conditions: mRNA
Experimental: as §1, §2

[4] = system: MCF-7, MDA-Mb-231 and Zr-75 cell lines; experiment: In vitro anti-cancer activity in human breast cancer cell lines, MTT (statements pooled over the three lines); type: cell-based; conditions: 1×10^−5, 1×10^−6 and 1×10^−7 M, 48 h
Experimental: as §3, §4

[5] = system: ZR-75 cell line; experiment: In vitro anti-cancer activity, MTT, ZR-75; type: cell-based, human; conditions: ER negative ZR-75; FIG. 2
Experimental: as §3, with “In the similar experiments, the ZR-75 cells were grown in RPMI 1640 (HyClone Laboratories, Logan, Utah, USA) supplemented with 10% fetal bovine serum (FBS) (HyClone Laboratories, Logan, Utah, USA) and 1% penicillin: streptomycin (Invitrogen, Carlsbad, Calif., USA).” left out

[6] = system: MDA-MB-231 cell line; experiment: In vitro anti-cancer activity, MTT, MDA-MB-231; type: cell-based, human; conditions: ER negative MDA-MB-231; FIG. 2
Experimental: as §3, with “In the similar experiments, the ZR-75 cells were grown in RPMI 1640 (HyClone Laboratories, Logan, Utah, USA) supplemented with 10% fetal bovine serum (FBS) (HyClone Laboratories, Logan, Utah, USA) and 1% penicillin: streptomycin (Invitrogen, Carlsbad, Calif., USA).” left out

Structure (SMILES) | melting point | expression of BAX ([1]; FIG. 3) | expression of CD44 ([1]; FIG. 3) | expression of BRAC-1 ([3]; FIG. 4) | anti-proliferative activity / inhibitory effects ([4]; FIG. 2) | also measured
O=C(Cn1nnnc1-c1ccc2c(c1)OCO2)NN=Cc1ccco1 [f13, 2-[5-(1,3-benzodioxol-5-yl)-1H-tetrazol-1-yl]-N′-[furan-2-ylmethylidene]acetohydrazide] | 212 to 214 °C | – | – | – | – | –
O=C(Cn1nnnc1-c1ccc2c(c1)OCO2)NN=Cc1ccccc1[N+](=O)[O-] [f10, 2-[5-(1,3-benzodioxol-5-yl)-1H-tetrazol-1yl]-N′-[(2-nitrophenyl)methylidene]acetohydrazide] | 210 to 212 °C | increased more than two fold | increased | a minimum of two folds decrease | excellent anti-proliferative activity | expression of CD44 ([1]; FIG. 3, listed as 10): increased about two fold; anti-proliferative effects on MCF-7 cells growth [2]: more anti-proliferative effects; anti-proliferative activity / inhibitory effects ([4]; FIG. 2, listed as 10): detectable
CCOc1ccc(C=NNC(=O)Cn2nnnc2-c2ccc3c(c2)OCO3)cc1 [f3, 2-[5-(1,3-benzodioxol-5-yl)-1H-tetrazol-1-yl]-N′-[(4-ethoxyphenyl)methylidene]acetohydrazide] | 208 to 210 °C | – | – | – | – | –
Cc1ccc(C=NNC(=O)Cn2nnnc2-c2ccc3c(c2)OCO3)cc1 [f6, 2-[5-(1,3-benzodioxol-5-yl)-1H-tetrazol-1-yl]-N′-[(4-methylphenyl)methylidene]acetohydrazide] | 203 to 205 °C | – | – | – | – | –
O=C(Cn1nnnc1-c1ccc2c(c1)OCO2)N/N=C/c1ccc([N+](=O)[O-])cc1 [f14, 2-[5-(1,3-benzodioxol-5-yl)-1H-tetrazol-1-yl]-N′-[(E)-(4-nitrophenyl)methylidene]acetohydrazide] | 204 to 206 °C | increased more than two fold | increased | a minimum of two folds decrease | excellent anti-proliferative activity | anti-proliferative effects on MCF-7 cells growth [2]: more anti-proliferative effects; anti-proliferative activity / inhibitory effects ([4]; FIG. 2, listed as 14): detectable
CCOc1ccccc1C=NNC(=O)Cn1nnnc1-c1ccc2c(c1)OCO2 [f7, 2-[5-(1,3-benzodioxol-5-yl)-1H-tetrazol-1-yl]-N′-[(2-ethoxyphenyl)methylidene]acetohydrazide] | 196 to 198 °C | – | – | – | – | –
COc1ccc(C=NNC(=O)Cn2nnnc2-c2ccc3c(c2)OCO3)cc1 [f4, 2-[5-(1,3-benzodioxol-5-yl)-1H-tetrazol-1-yl]-N′-[(4-methoxyphenyl)methylidene]acetohydrazide] | 198 to 200 °C | – | – | – | – | –
COc1ccc(C=NNC(=O)Cn2nnnc2-c2ccc3c(c2)OCO3)cc1OC [f8, 2-[5-(1,3-benzodioxol-5-yl)-1H-tetrazol-1-yl]-N′-[(3,4-dimethoxyphenyl)methylidene]acetohydrazide] | 200 to 202 °C | increased more than two fold | increased | a minimum of two folds decrease | excellent anti-proliferative activity | anti-proliferative effects in ZR-75 [5]: more anti-proliferative effects; expression of CD44 ([1]; FIG. 3, listed as 8): increased about two fold; anti-proliferative effects in MDA-MB-231 [6]: more anti-proliferative effects; expression of BRAC-1 ([3]; FIG. 4, listed as 8): highly suppressed; anti-proliferative activity / inhibitory effects ([4]; FIG. 2, listed as 8): detectable
O=C(Cn1nnnc1-c1ccc2c(c1)OCO2)NN=Cc1ccc(Cl)cc1 [f1, 2-[5-(1,3-benzodioxol-5-yl)-1H-tetrazol-1-yl]-N′-[4-chlorophenyl-methylidene]acetohydrazide] | 206 to 208 °C | – | – | – | – | –
O=C(Cn1nnnc1-c1ccc2c(c1)OCO2)NN=Cc1cccc([N+](=O)[O-])c1 [f12, 2-[5-(1,3-benzodioxol-5-yl)-1H-tetrazol-1yl]-N′-[(3-nitrophenyl)methylidene]acetohydrazide] | 208 to 210 °C | increased more than two fold | increased | a minimum of two folds decrease | excellent anti-proliferative activity | anti-proliferative effects on MCF-7 cells growth [2]: more anti-proliferative effects; anti-proliferative activity / inhibitory effects ([4]; FIG. 2, listed as 12): detectable
CCc1ccc(C=NNC(=O)Cn2nnnc2-c2ccc3c(c2)OCO3)cc1 [f11, 2-[5-(1,3-benzodioxol-5-yl)-1H-tetrazol-1-yl]-N′-[(4-ethylphenyl)methylidene]acetohydrazide] | 200 to 202 °C | – | – | – | – | –
O=C(Cn1nnnc1-c1ccc2c(c1)OCO2)NN=Cc1ccccc1Cl [f2, 2-[5-(1,3-benzodioxol-5-yl)-1H-tetrazol-1-yl]-N′-[(2-chlorophenyl)methylidene]acetohydrazide] | 198 to 200 °C | increased more than two fold | increased | a minimum of two folds decrease | excellent anti-proliferative activity | anti-proliferative activity / inhibitory effects ([4]; FIG. 2, listed as 2): detectable
O=C(Cn1nnnc1-c1ccc2c(c1)OCO2)NN=Cc1ccccc1 [f5, 2-[5-(1,3-benzodioxol-5-yl)-1H-tetrazol-1yl]-N′-[phenylmethylidene]acetohydrazide] | 204 to 206 °C | – | – | – | – | –
